# Test results reported in patent publication US20100075907A1, “NEUROMEDIN U RECEPTOR AGONISTS AND USES THEREOF” (priority 2006, published 2010).
# Residues, ends and D or L forms follow the SMILES beside them. *: point of attachment. X1 = CC(C)CCC[C@@H](C)[C@H]1CC[C@H]2[C@@H]3CC=C4C[C@@H](OC(=O)C*)CC[C@]4(C)[C@H]3CC[C@]12C; Succinimide(1-Et,3-yl) = CCN1C(=O)CC(*)C1=O
# What was measured:
# Format in all cases: cell-based
# Set-up in all cases: expressed in transfected cells; host or cells: FLP-In CHO or HEK-293 FLP-In cells (pcDNA5)
# Mouse NMUR1-CTG = molecular target: T1, Mouse NMUR1-CTG (Mus musculus, UniProt O55040); test: FLIPR calcium mobilization assay, mouse NMUR1-CTG; settings: maximum response at 1 μM compared to hNMU-25; mouse NMUR1-CTG
# T1 sequence (O55040 1-428): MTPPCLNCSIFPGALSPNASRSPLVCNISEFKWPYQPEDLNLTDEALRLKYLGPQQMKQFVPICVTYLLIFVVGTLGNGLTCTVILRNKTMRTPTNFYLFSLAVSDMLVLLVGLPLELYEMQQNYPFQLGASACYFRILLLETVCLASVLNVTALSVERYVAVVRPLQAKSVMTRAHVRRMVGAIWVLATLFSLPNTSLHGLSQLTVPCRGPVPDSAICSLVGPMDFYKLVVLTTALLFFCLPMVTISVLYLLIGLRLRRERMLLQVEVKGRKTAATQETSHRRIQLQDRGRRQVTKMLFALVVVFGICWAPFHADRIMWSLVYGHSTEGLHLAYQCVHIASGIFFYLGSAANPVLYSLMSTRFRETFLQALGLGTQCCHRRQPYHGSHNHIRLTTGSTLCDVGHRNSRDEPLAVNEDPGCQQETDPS
# Description: (§1) Human, mouse or rat cDNAs encoding NMUR1 or NMUR2 (as described in Howard et al. Nature 406: 70-74 (2000) were subcloned in pcDNA5 (Invitrogen) and transfected into FLP-In CHO cells and HEK-293 FLP-In cells purchased from Invitrogen (Carlsbad, Calif.) using lipofectamine (Invitrogen). The Flp-In system allows integration and expression of a particular gene of interest at a specific genomic location utilizing the Flp recombinase from yeast. The transfected cells were selected by growth in medium containing 200 μg/mL hygromycin (Invitrogen). Populations were frozen at early passage numbers, and these stocks were used for further studies. Stable clones that expressed the mRNAs were identified functionally by FLIPR as well as by RT-PCR. […] Two different rodent NMUR1 cell lines were thus generated: one with the codon as predicted from the genomic databases and another cell line with an engineered methionine (ATG) as the start codon. Additionally, stable cell lines expressing the human receptors were generated in HEK-293/aeq17 cells which stably express the aequorin gene under the CMV promoter. The human NMUR2 cDNA was cloned into pcDNA3.1 and human NMUR1 was subcloned into pIRES-puro (Clontech, Mountain View, Calif.), after transfection cells were selected in media containing G418 and either hygromycin (NMUR2) or puromycin (NMUR1).
# (§2) The NMU receptors signal primarily through Gαq/11 proteins; therefore calcium mobilization assays can be utilized for functional activity.
# (§3) Stable cell lines expressing human and or rodent NMUR1 or human NMUR2 receptors were plated at a density of 12,000 cells per well overnight on poly-lysine coated 384-well black-walled plates. The following day, the media was removed from the plates and the cells were subsequently loaded with Fluo-3 (Molecular Probes), a calcium sensitive dye, diluted in FLIPR buffer (1× Hank's buffered saline containing 20 mM HEPES, 0.1% BSA, 2.5 mM probenecid (Sigma) and 1.6 mM TR40). All reagents are from Invitrogen unless otherwise noted. Peptide stocks were resuspended in DMSO at a stock concentration of 2 mM and diluted in FLIPR buffer on the day of the experiment to a 4 μM working stock solution.
# (§4) After a 90 minute incubation at room-temperature, cell plates were loaded onto a FLIPR (Molecular Devices) to monitor cellular fluorescence (excitation=488 nm; emission=540 nm) before and after compound/peptide addition. Eight to twelve point dose responses were tested on NMUR-expressing cell lines using FLIPR with 1 μM peptide as the highest dose. The response after peptide addition was taken as the maximum fluorescence units minus the fluorescence immediately prior to stimulation for each well. EC50 values were calculated using GraphPad Prism (San Diego, Calif.) software.
# (§5) In vitro responses of Neuromedin U receptor agonists (NMU1 to NMU25) in the FLIPR assay for human (Table 3), mouse (Table 4) and rat (Table 5) NMUR1 and NMUR2. EC50s are reported in nM values. Percent activity refers to the maximum response at 1 μM compared to the hNMU-25 response at the same concentration. NT=not tested.
# rat NMUR1-ATG = molecular target: T2, rat NMUR1-ATG (Rattus norvegicus, UniProt Q9JJI5); test: FLIPR calcium mobilization assay, rat NMUR1-ATG; settings: rat NMUR1-ATG; for % Activity: maximum response at 1 μM compared to hNMU-25
# T2 sequence (Q9JJI5 1-425): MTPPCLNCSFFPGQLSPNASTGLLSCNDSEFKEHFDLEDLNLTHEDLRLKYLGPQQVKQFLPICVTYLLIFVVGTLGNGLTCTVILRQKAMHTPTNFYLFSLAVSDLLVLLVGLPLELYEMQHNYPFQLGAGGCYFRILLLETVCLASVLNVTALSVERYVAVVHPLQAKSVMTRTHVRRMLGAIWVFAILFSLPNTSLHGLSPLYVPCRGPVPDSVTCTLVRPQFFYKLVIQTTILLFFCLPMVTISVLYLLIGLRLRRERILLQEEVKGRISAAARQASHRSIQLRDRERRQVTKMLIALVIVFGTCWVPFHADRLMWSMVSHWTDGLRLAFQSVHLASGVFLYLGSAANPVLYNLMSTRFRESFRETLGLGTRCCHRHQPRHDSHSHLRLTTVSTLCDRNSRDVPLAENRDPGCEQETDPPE
# Description: as §1, §2, §3, §4, §5
# rat NMUR2 = rat NMUR2 (Rattus norvegicus, UniProt Q9ESQ4); test: FLIPR calcium mobilization assay, rat NMUR2; settings: maximum response at 1 μM compared to hNMU-25; rat NMUR2
# Description: as §1, §2, §3, §4, §5
# Chain of rat NMUR2 (Q9ESQ4 whole entry): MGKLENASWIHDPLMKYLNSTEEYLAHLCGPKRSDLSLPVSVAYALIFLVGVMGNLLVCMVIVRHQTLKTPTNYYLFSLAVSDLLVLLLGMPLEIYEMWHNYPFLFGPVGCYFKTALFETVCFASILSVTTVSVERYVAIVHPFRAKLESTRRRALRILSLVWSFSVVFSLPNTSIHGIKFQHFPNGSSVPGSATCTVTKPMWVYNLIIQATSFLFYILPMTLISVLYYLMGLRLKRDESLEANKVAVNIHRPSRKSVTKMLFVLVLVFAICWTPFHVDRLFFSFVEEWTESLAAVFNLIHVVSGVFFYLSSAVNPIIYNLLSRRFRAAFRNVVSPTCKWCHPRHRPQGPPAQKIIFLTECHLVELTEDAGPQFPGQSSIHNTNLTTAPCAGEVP
Structure (SMILES),% Activity (Mouse NMUR1-CTG) [%],EC50 (rat NMUR1-ATG; FLIPR) [nM],% Activity (rat NMUR1-ATG) [%],% Activity (rat NMUR2) [%]
"CCN1C(=O)CC(SC[C@H](NC(C)=O)C(=O)NCC(=O)N[C@@H](Cc2ccc(O)cc2)C(=O)N[C@@H](Cc2ccccc2)C(=O)N[C@@H](CC(C)C)C(=O)N[C@@H](Cc2ccccc2)C(=O)N[C@@H](CCCNC(=N)N)C(=O)N2CCC[C@H]2C(=O)N[C@@H](CCCNC(=N)N)C(=O)N[C@@H](CC(N)=O)C(N)=O)C1=O (stereo partly shown) [NMU6] (Ac-C(Succinimide(1-Et,3-yl))GYFLFRPRN-NH2)",100,1,100,100
CC(=O)N[C@@H](CSCC(=O)O[C@H]1CC[C@@]2(C)C(=CC[C@H]3[C@@H]4CC[C@H]([C@H](C)CCCC(C)C)[C@@]4(C)CC[C@@H]32)C1)C(=O)NCC(=O)N[C@@H](Cc1ccc(O)cc1)C(=O)N[C@@H](Cc1ccccc1)C(=O)N[C@@H](CC(C)C)C(=O)N[C@@H](Cc1ccccc1)C(=O)N[C@@H](CCCNC(=N)N)C(=O)N1CCC[C@H]1C(=O)N[C@@H](CCCNC(=N)N)C(=O)N[C@@H](CC(N)=O)C(N)=O [NMU11] (Ac-C(X1)GYFLFRPRN-NH2),65.0,–,50.9,33.2
